Data reported in patent publication US11987588B2, “Modulators of the beta-3 adrenergic receptor useful for the treatment or prevention of heart failure and disorders related thereto” (Arena Pharmaceuticals, Inc., priority 2017, dated 2024).
pIC50: −log10 of the molar value.

Biological target: Beta-3 Adrenergic Receptor (Homo sapiens (Human), UniProt P13945)
Experiment: Homogeneous Time-Resolved Fluorescence (HTRF) cAMP antagonist assay, IC50 determination
Type: cell-based
Settings: CHO-K1 cells stably expressing recombinant receptor, isoproterenol at EC90
Summary of the method: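 CHO-K1 cells stably expressing the recombinant receptor were preincubated with compound (10-point, 5-fold dilutions; top final typically 10 or 100 μM) in PBS with 1 mM IBMX, then stimulated with isoproterenol at its EC90 for 1 h at room temperature. cAMP was read by HTRF against an on-plate standard curve.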

Chain of Beta-3 Adrenergic Receptor (P13945 whole entry, species assumed): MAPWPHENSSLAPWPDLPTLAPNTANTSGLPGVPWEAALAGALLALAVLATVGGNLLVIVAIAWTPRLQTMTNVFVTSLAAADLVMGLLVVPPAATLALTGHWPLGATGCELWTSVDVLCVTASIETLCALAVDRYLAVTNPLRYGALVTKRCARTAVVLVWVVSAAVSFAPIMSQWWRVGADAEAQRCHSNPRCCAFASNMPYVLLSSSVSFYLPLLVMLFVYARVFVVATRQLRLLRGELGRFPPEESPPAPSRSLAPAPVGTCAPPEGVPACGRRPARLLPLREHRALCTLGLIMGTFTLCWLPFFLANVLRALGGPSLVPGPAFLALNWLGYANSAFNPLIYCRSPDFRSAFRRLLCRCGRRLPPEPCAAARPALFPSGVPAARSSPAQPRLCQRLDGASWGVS

Row | Structure (SMILES) | pIC50
1 | CNS(=O)(=O)c1cccc(OC[C@@H](O)CN[C@H]2COC3(CCN(S(=O)(=O)c4cnc5nc[nH]c5c4)CC3)C2)c1 [Compound 495, 3-((S)-3-((R)-8-(1H-imidazo[4,5-b]pyridin-6-ylsulfonyl)-1-oxa-8-azaspiro[4.5]decan-3-ylamino)-2-hydroxypropoxy)-N-methylbenzenesulfonamide] | 7.30
2 | CNS(=O)(=O)c1cccc(OC[C@@H](O)CN[C@H]2COC3(CCN(S(=O)(=O)c4cnc5c(c4)NCCO5)CC3)C2)c1 [Compound 444, 3-((S)-3-((R)-8-(2,3-dihydro-1H-pyrido[2,3-b][1,4]oxazin-7-ylsulfonyl)-1-oxa-8-azaspiro[4.5]decan-3-ylamino)-2-hydroxypropoxy)-N-methylbenzenesulfonamide] | 7.50
3 | CCn1cc(-c2cccc(S(=O)(=O)N3CCC4(CC3)CC(NC[C@H](O)COc3cccc(S(=O)(=O)N(C)C)c3)CO4)c2)cn1 (stereo partly drawn) [Compound 272, 3-((2S)-3-(8-(3-(1-ethyl-1H-pyrazol-4-yl)phenylsulfonyl)-1-oxa-8-azaspiro[4.5]decan-3-ylamino)-2-hydroxypropoxy)-N,N-dimethylbenzenesulfonamide] | 6.97
4 | CNS(=O)(=O)c1cccc(OC[C@@H](O)CNC2COC3(CCN(S(=O)(=O)c4ccn(C)n4)CC3)C2)c1 (stereo partly drawn) [Compound 193, 3-((2S)-2-hydroxy-3-(8-(1-methyl-1H-pyrazol-3-ylsulfonyl)-1-oxa-8-azaspiro[4.5]decan-3-ylamino)propoxy)-N-methylbenzenesulfonamide] | 7.26
5 | CNS(=O)(=O)c1cccc(OC[C@@H](O)CNC2COC3(CCN(S(=O)(=O)c4ccc(F)cc4)CC3)C2)c1 (stereo partly drawn) [Compound 26, 3-((2S)-3-(8-(4-fluorophenylsulfonyl)-1-oxa-8-azaspiro[4.5]decan-3-ylamino)-2-hydroxypropoxy)-N-methylbenzenesulfonamide] | 7.47
6 | CNS(=O)(=O)c1cccc(OC[C@@H](O)CN[C@H]2COC3(CCN(S(=O)(=O)c4cc5nc[nH]c5nc4C)CC3)C2)c1 [Compound 516, 3-((S)-2-hydroxy-3-((R)-8-(5-methyl-3H-imidazo[4,5-b]pyridin-6-ylsulfonyl)-1-oxa-8-azaspiro[4.5]decan-3-ylamino)propoxy)-N-methylbenzenesulfonamide] | 6.78
7 | CN(C)CCCNS(=O)(=O)c1cccc(OC[C@@H](O)CNC2COC3(CCN(S(=O)(=O)c4ccc(-c5ccccc5)s4)CC3)C2)c1 (stereo partly drawn) [Compound 315, N-(3-(dimethylamino)propyl)-3-((2S)-2-hydroxy-3-(8-(5-phenylthiophen-2-ylsulfonyl)-1-oxa-8-azaspiro[4.5]decan-3-ylamino)propoxy)benzenesulfonamide] | 5.97
8 | O=S(=O)(NC1CC1)c1cccc(OC[C@@H](O)CNC2COC3(CCN(S(=O)(=O)c4ccc5ccccc5c4)CC3)C2)c1 (stereo partly drawn) [Compound 74, N-cyclopropyl-3-((2S)-2-hydroxy-3-(8-(naphthalen-2-ylsulfonyl)-1-oxa-8-azaspiro[4.5]decan-3-ylamino)propoxy)benzenesulfonamide] | 6.63
9 | CNS(=O)(=O)c1cccc(OC[C@@H](O)CN[C@H]2COC3(CCN(S(=O)(=O)c4cccc(-c5ccc(CNCCC(C)C)cc5)c4)CC3)C2)c1 [Compound 364, 3-((S)-2-hydroxy-3-((R)-8-(4′-((isopentylamino)methyl)biphenyl-3-ylsulfonyl)-1-oxa-8-azaspiro[4.5]decan-3-ylamino)propoxy)-N-methylbenzenesulfonamide] | 6.84
10 | CNS(=O)(=O)c1cccc(OC[C@@H](O)CNC2COC3(CCN(S(=O)(=O)c4cccc(-c5ccc(C(N)=O)cc5)c4)CC3)C2)c1 (stereo partly drawn) [Compound 368, 3′-(3-((S)-2-hydroxy-3-(3-(N-methylsulfamoyl)phenoxy)propylamino)-1-oxa-8-azaspiro[4.5]decan-8-ylsulfonyl)biphenyl-4-carboxamide] | 7.45
11 | CNS(=O)(=O)c1cccc(OC[C@@H](O)CNC2COC3(CCN(S(=O)(=O)c4cccnc4N(C)C)CC3)C2)c1 (stereo partly drawn) [Compound 441, 3-((2S)-3-(8-(2-(dimethylamino)pyridin-3-ylsulfonyl)-1-oxa-8-azaspiro[4.5]decan-3-ylamino)-2-hydroxypropoxy)-N-methylbenzenesulfonamide] | 7.09
12 | CNS(=O)(=O)c1cccc(OC[C@@H](O)CN[C@H]2COC3(CCN(S(=O)(=O)c4cnc5c(c4)CNC5)CC3)C2)c1 [Compound 482, 3-((S)-3-((R)-8-(6,7-dihydro-5H-pyrrolo[3,4-b]pyridin-3-ylsulfonyl)-1-oxa-8-azaspiro[4.5]decan-3-ylamino)-2-hydroxypropoxy)-N-methylbenzenesulfonamide] | 5.82
13 | CNS(=O)(=O)c1cccc(OC[C@@H](O)CN[C@H]2COC3(CCN(c4ncc(Cc5ccccc5)cn4)CC3)C2)c1 [Compound 570, 3-((S)-3-((R)-8-(5-benzylpyrimidin-2-yl)-1-oxa-8-azaspiro[4.5]decan-3-ylamino)-2-hydroxypropoxy)-N-methylbenzenesulfonamide] | 6.84
14 | CNS(=O)(=O)c1cccc(OC[C@@H](O)CN[C@H]2COC3(CCN(S(=O)(=O)c4cc(-c5ccc(CN)cc5)ccc4OC(F)(F)F)CC3)C2)c1 [Compound 416, 3-((S)-3-((R)-8-(4′-(aminomethyl)-4-(trifluoromethoxy)biphenyl-3-ylsulfonyl)-1-oxa-8-azaspiro[4.5]decan-3-ylamino)-2-hydroxypropoxy)-N-methylbenzenesulfonamide] | 6.58
15 | CCn1cc(S(=O)(=O)N2CCC3(CC2)C[C@@H](NC[C@H](O)COc2cccc(S(N)(=O)=O)c2)CO3)c(=O)c2ccccc21 [Compound 550, 3-((S)-3-((R)-8-(1-ethyl-4-oxo-1,4-dihydroquinolin-3-ylsulfonyl)-1-oxa-8-azaspiro[4.5]decan-3-ylamino)-2-hydroxypropoxy)benzenesulfonamide] | 7.39

More lines, now with the values ahead:

Row | pIC50 | Structure (SMILES)
16 | 7.85 | CNS(=O)(=O)c1cccc(OC[C@@H](O)CNC2COC3(CCN(S(=O)(=O)c4cc(F)ccc4F)CC3)C2)c1 (stereo partly drawn) [Compound 205, 3-((2S)-3-(8-(2,5-difluorophenylsulfonyl)-1-oxa-8-azaspiro[4.5]decan-3-ylamino)-2-hydroxypropoxy)-N-methylbenzenesulfonamide]
17 | 7.72 | CNS(=O)(=O)c1cccc(OC[C@@H](O)CN[C@H]2COC3(CCN(S(=O)(=O)c4cnc5cn[nH]c5c4)CC3)C2)c1 [Compound 502, 3-((S)-3-((R)-8-(1H-pyrazolo[4,3-b]pyridin-6-ylsulfonyl)-1-oxa-8-azaspiro[4.5]decan-3-ylamino)-2-hydroxypropoxy)-N-methylbenzenesulfonamide]
18 | 7.68 | CN(C)S(=O)(=O)c1cccc(OC[C@@H](O)CNC2COC3(CCN(S(=O)(=O)c4cccc(-c5ccc(S(N)(=O)=O)cc5)c4)CC3)C2)c1 (stereo partly drawn) [Compound 274, 3′-(3-((S)-3-(3-(N,N-dimethylsulfamoyl)phenoxy)-2-hydroxypropylamino)-1-oxa-8-azaspiro[4.5]decan-8-ylsulfonyl)biphenyl-4-sulfonamide]
19 | 7.50 | CCNS(=O)(=O)c1cccc(OC[C@@H](O)CNC2COC3(CCN(S(=O)(=O)c4cccc(-c5ccc(CC#N)cc5)c4)CC3)C2)c1 (stereo partly drawn) [Compound 214, 3-((2S)-3-(8-(4′-(cyanomethyl)biphenyl-3-ylsulfonyl)-1-oxa-8-azaspiro[4.5]decan-3-ylamino)-2-hydroxypropoxy)-N-ethylbenzenesulfonamide]
20 | 7.96 | CNS(=O)(=O)c1cccc(OC[C@@H](O)CN[C@H]2COC3(CCN(S(=O)(=O)c4ccc5c(c4)N(C)CCO5)CC3)C2)c1 [Compound 300, 3-((S)-2-hydroxy-3-((R)-8-(4-methyl-3,4-dihydro-2H-benzo[b][1,4]oxazin-6-ylsulfonyl)-1-oxa-8-azaspiro[4.5]decan-3-ylamino)propoxy)-N-methylbenzenesulfonamide]
21 | 7.94 | CNS(=O)(=O)c1cccc(OC[C@@H](O)CNC2COC3(CCN(S(=O)(=O)c4ccc5cc(OC)ccc5c4)CC3)C2)c1 (stereo partly drawn) [Compound 169, 3-((2S)-2-hydroxy-3-(8-(6-methoxynaphthalen-2-ylsulfonyl)-1-oxa-8-azaspiro[4.5]decan-3-ylamino)propoxy)-N-methylbenzenesulfonamide]
22 | 7.85 | CNS(=O)(=O)c1cccc(OC[C@@H](O)CN[C@@H]2COC3(CCN(S(=O)(=O)c4cnc5c(c4)N(C)CCO5)CC3)C2)c1 [Compound 413, 3-((S)-2-hydroxy-3-((S)-8-(1-methyl-2,3-dihydro-1H-pyrido[2,3-b][1,4]oxazin-7-ylsulfonyl)-1-oxa-8-azaspiro[4.5]decan-3-ylamino)propoxy)-N-methylbenzenesulfonamide]
23 | 8.20 | CNS(=O)(=O)c1cccc(OC[C@@H](O)CN[C@H]2COC3(CCN(S(=O)(=O)c4cnc5c(c4)c(Cl)cn5C)CC3)C2)c1 [Compound 513, 3-((S)-3-((R)-8-(3-chloro-1-methyl-1H-pyrrolo[2,3-b]pyridin-5-ylsulfonyl)-1-oxa-8-azaspiro[4.5]decan-3-ylamino)-2-hydroxypropoxy)-N-methylbenzenesulfonamide]
24 | 7.57 | COc1ccc(S(=O)(=O)N2CCC3(CC2)CC(NC[C@H](O)COc2cccc(S(=O)(=O)N(C)C)c2)CO3)cc1C (stereo partly drawn) [Compound 247, 3-((2S)-2-hydroxy-3-(8-(4-methoxy-3-methylphenylsulfonyl)-1-oxa-8-azaspiro[4.5]decan-3-ylamino)propoxy)-N,N-dimethylbenzenesulfonamide]
25 | 7.70 | CNS(=O)(=O)c1cccc(OC[C@@H](O)CN[C@@H]2COC3(CCN(S(=O)(=O)c4cccc(-c5ccc(CN)cc5)c4C)CC3)C2)c1 [Compound 447, 3-((S)-3-((S)-8-(4′-(aminomethyl)-2-methylbiphenyl-3-ylsulfonyl)-1-oxa-8-azaspiro[4.5]decan-3-ylamino)-2-hydroxypropoxy)-N-methylbenzenesulfonamide]
26 | 7.60 | CNS(=O)(=O)c1cccc(OC[C@@H](O)CN[C@H]2COC3(CCN(S(=O)(=O)c4cncc(-c5ccc(CN)cc5)c4)CC3)C2)c1 [Compound 375]
